US20180148418A1, “AMIDO-SUBSTITUTED CYCLOHEXANE DERIVATIVES” (Bayer Pharma Aktiengesellschaft, priority 2015, published 2018)

Legend:
[1] = system: HEK293 cells cotransfected with the FOP control vector; assay: HEK293 FOP assay (control reporter with non-functional TCF elements); type: cell-based; details: 16 hours
How it was run: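 Compound series from 50 μM down to 15 nM, prediluted in DMSO then 50-fold into CAFTY buffer (pH 7.4, 2 mM Ca2+, 0.01% BSA), tested alongside TOP cells on a Geneticin-selected HEK293 FOP line whose TCF elements are replaced by a random sequence; recombinant human Wnt-3a applied at 2500-5 ng/ml.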

[2] = system: wildtype Wnt signaling cascade; assay: HEK293 TOP assay (Super TopFlash luciferase reporter, Wnt-3a stimulated); type: cell-based; details: HEK293 TOP reporter cells, Wnt3a at EC50, 16 hours
How it was run: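 Compound series (50 μM down to 15 nM, 3.16-fold) diluted from DMSO 50-fold into CAFTY buffer, pH 7.4, 2 mM Ca^2+, 0.01% BSA, applied to Wnt-3a-stimulated HEK293 TopFlash and FOP reporter lines in parallel. Cells seeded 10000/well 24 h before; luciferase signal measured.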

TNKS2 = target: T1, TNKS2 (Homo sapiens, UniProt Q9H2K2); assay: TNKS2 Assay B (auto-parsylation, [3H]-NAD+ SPA); type: biochemical; details: 6 nM TNKS2, auto-parsylation, over night at room temperature
T1 construct: purchased BPS Bioscience, San Diego, USA 80572 (TNKS2 Histone Ribosylation Assay Kit)
T1 sequence (Q9H2K2 1-1166): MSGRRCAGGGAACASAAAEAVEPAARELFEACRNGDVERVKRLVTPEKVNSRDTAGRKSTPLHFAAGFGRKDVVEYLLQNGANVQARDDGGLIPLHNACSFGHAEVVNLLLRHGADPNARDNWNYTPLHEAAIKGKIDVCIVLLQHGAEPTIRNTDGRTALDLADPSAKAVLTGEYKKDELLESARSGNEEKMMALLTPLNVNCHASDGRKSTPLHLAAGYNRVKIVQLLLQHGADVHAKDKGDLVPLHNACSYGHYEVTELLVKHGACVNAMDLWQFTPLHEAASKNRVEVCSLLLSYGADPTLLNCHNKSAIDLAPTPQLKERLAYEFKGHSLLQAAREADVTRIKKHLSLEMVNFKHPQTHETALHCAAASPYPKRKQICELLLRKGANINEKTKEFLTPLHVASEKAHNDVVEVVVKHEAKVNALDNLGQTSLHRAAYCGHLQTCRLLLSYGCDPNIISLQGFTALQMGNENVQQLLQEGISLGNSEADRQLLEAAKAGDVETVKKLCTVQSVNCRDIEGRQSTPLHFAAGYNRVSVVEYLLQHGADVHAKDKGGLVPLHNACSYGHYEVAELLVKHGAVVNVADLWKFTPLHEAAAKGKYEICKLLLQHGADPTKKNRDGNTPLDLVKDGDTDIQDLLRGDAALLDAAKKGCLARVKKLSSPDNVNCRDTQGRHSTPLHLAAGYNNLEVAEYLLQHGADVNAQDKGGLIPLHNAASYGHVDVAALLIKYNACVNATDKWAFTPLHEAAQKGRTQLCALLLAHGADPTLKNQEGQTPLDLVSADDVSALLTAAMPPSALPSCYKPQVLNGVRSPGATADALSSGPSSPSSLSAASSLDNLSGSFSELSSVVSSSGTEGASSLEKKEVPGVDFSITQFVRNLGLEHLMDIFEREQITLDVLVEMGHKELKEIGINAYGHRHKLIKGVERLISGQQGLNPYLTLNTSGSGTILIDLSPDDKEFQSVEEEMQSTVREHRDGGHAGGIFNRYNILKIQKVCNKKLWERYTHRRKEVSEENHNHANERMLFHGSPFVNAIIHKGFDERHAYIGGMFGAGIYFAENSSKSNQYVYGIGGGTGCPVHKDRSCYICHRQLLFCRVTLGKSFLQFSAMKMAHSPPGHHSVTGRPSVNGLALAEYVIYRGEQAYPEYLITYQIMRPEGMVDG

| SMILES | IC50 ([2]; Homo sapiens, HEK293, 16 h) | IC50 (TNKS2) | IC50 ([1]; Homo sapiens) | IC50 [1] | IC50 [2] |
| --- | --- | --- | --- | --- | --- |
| Cc1cc(C)n2ncc(C(=O)NC34CCC(C(=O)Nc5cnccc5Cl)(CC3)CC4)c2n1 [Example 128, N-{4-[(4-chloropyridin-3-yl)carbamoyl]bicyclo[2.2.2]oct-1-yl}-5,7-dimethylpyrazolo[1,5-a]pyrimidine-3-carboxamide] | 240 nM | 96 nM | ≥ 50000 nM |  |  |
| Cc1c(C(C)N(C)C)cnc2c(C(=O)N[C@H]3CC[C@H](C(=O)Nc4ccc(F)cc4Cl)CC3)cnn12 (single isomer, unassigned) [Example 57, N-{trans-4-[(2-chloro-4-fluorophenyl)carbamoyl]cyclohexyl}-6-[1-(dimethylamino)ethyl]-7-methylpyrazolo[1,5-a]pyrimidine-3-carboxamide] |  | 160 nM |  | ≥ 50000 nM | 310 nM |
| O=C(N[C@H]1CC[C@H](C(=O)Nc2c(F)cc(F)cc2Cl)CC1)c1cnc2cccnn12 [Example 133, N-{trans-4-[(2-chloro-4,6-difluorophenyl)carbamoyl]cyclohexyl}imidazo[1,2-b]pyridazine-3-carboxamide] | 290 nM | 55 nM | ≥ 50000 nM |  |  |
| O=C(N[C@H]1CC[C@H](C(=O)Nc2ccncc2Cl)CC1)c1cnc2cccnn12 [Example 103, N-{trans-4-[(3-chloropyridin-4-yl)carbamoyl]cyclohexyl}imidazo[1,2-b]pyridazine-3-carboxamide] | 410 nM | 290 nM | 27000 nM |  |  |
| O=C(NC12CCC(C(=O)Nc3c(F)cc(F)cc3Cl)(CC1)CC2)c1cnc2cccnn12 [Example 123, N-{4-[(2-chloro-4,6-difluorophenyl)carbamoyl]bicyclo[2.2.2]oct-1-yl}imidazo[1,2-b]pyridazine-3-carboxamide] | 660 nM | 480 nM | ≥ 50000 nM |  |  |
| Cc1cc(NC(=O)C23CCC(NC(=O)c4cnn5cccnc45)(CC2)CC3)c(Cl)cc1F [Example 118, N-{4-[(2-chloro-4-fluoro-5-methylphenyl)carbamoyl]bicyclo[2.2.2]oct-1-yl}pyrazolo[1,5-a]pyrimidine-3-carboxamide] | 300 nM | 67 nM | ≥ 50000 nM |  |  |
| O=C(N[C@H]1CC[C@H](C(=O)Nc2ccncc2Cl)CC1)c1cnn2cccnc12 [Example 105, N-{trans-4-[(3-chloropyridin-4-yl)carbamoyl]cyclohexyl}pyrazolo[1,5-a]pyrimidine-3-carboxamide] | 240 nM | 120 nM | ≥ 50000 nM |  |  |
| O=C(N[C@H]1CC[C@@]2(CCN(c3ccc(F)cc3Cl)C2=O)CC1)c1[nH]cnc1C(=O)N1CC(F)C1 [Example 166, N-[(trans)-2-(2-chloro-4-fluorophenyl)-1-oxo-2-azaspiro[4.5]dec-8-yl]-4-[(3-fluoroazetidin-1-yl)carbonyl]-1H-imidazole-5-carboxamide] | 0.69 nM | 2.6 nM | ≥ 50000 nM |  |  |
| CNC(=O)c1[nH]cnc1C(=O)NC12CCC(C(=O)Nc3c(F)cc(F)cc3Cl)(CC1)CC2 [Example 116, N^4-{4-[(2-chloro-4,6-difluorophenyl)carbamoyl]bicyclo[2.2.2]oct-1-yl}-N^5-methyl-1H-imidazole-4,5-dicarboxamide] | 330 nM | 590 nM | 8700 nM |  |  |
| COCc1cc(C)n2ncc(C(=O)N[C@H]3CC[C@H](C(=O)Nc4c(F)cc(F)cc4Cl)CC3)c2n1 [Example 112, N-{trans-4-[(2-chloro-4,6-difluorophenyl)carbamoyl]cyclohexyl}-5-(methoxymethyl)-7-methylpyrazolo[1,5-a]pyrimidine-3-carboxamide] | 190 nM | 68 nM | ≥ 50000 nM |  |  |

Second part, led by results:

| IC50 ([2]; Homo sapiens, HEK293, 16 h) | IC50 (TNKS2) | SMILES | IC50 ([1]; Homo sapiens) | IC50 [1] | IC50 [2] |
| --- | --- | --- | --- | --- | --- |
| 190 nM | 110 nM | CNC(=O)c1nc[nH]c1C(=O)N[C@H]1CC[C@H](C(=O)Nc2cc(OC)c(OC)cc2Cl)CC1 [Example 5, N^5-{trans-4-[(2-chloro-4,5-dimethoxyphenyl)carbamoyl]cyclohexyl}-N^4-methyl-1H-imidazole-4,5-dicarboxamide] | ≥ 50000 nM |  |  |
| 10 nM | 2.1 nM | O=C(NCCN1CCCCC1)c1nc[nH]c1C(=O)N[C@H]1CC[C@H](C(=O)Nc2cc(F)c(F)cc2Cl)CC1 [Example 4, N^5-{trans-4-[(2-chloro-4,5-difluorophenyl)carbamoyl]cyclohexyl}-N^4-[2-(piperidin-1-yl)ethyl]-1H-imidazole-4,5-dicarboxamide] | ≥ 50000 nM |  |  |
| 1.8 nM | 6.5 nM | CCNC(=O)c1[nH]cnc1C(=O)N[C@H]1CC[C@@]2(CCN(c3ccc(F)cc3Cl)C2=O)CC1 [Example 141, N^4-[(trans)-2-(2-chloro-4-fluorophenyl)-1-oxo-2-azaspiro[4.5]dec-8-yl]-N^5-ethyl-1H-imidazole-4,5-dicarboxamide] | ≥ 50000 nM |  |  |
| 220 nM | 150 nM | COCC(C)NC(=O)c1nc[nH]c1C(=O)N[C@H]1CC[C@H](C(=O)Nc2cc(C(F)(F)F)ccc2Cl)CC1 (stereo partly drawn) [Example 143, N^5-(trans-4-{[2-chloro-5-(trifluoromethyl)phenyl]carbamoyl}cyclohexyl)-N^4-(1-methoxypropan-2-yl)-1H-imidazole-4,5-dicarboxamide] | 33000 nM |  |  |
| 610 nM | 1600 nM | CC(C)(O)CNC(=O)c1nc[nH]c1C(=O)N[C@H]1CC[C@H](C(=O)Nc2cc(N3CCOCC3)ccc2Cl)CC1 [Example 94, N^5-(trans-4-{[2-chloro-5-(morpholin-4-yl)phenyl]carbamoyl}cyclohexyl)-N^4-(2-hydroxy-2-methylpropyl)-1H-imidazole-4,5-dicarboxamide] | ≥ 50000 nM |  |  |
| 13 nM | 8.1 nM | CNC(=O)c1nc[nH]c1C(=O)N[C@H]1CC[C@H](C(=O)Nc2cc(F)c(F)cc2Cl)CC1 [Example 3, N^5-{trans-4-[(2-chloro-4,5-difluorophenyl)carbamoyl]cyclohexyl}-N^4-methyl-1H-imidazole-4,5-dicarboxamide] | ≥ 50000 nM |  |  |
| 8300 nM | 280 nM | CNC(=O)c1nc[nH]c1C(=O)N[C@H]1CC[C@H](C(=O)N(CCO)c2ccc(F)cc2Cl)CC1 [Example 157, N^5-{trans-4-[(2-chloro-4-fluorophenyl)(2-hydroxyethyl)carbamoyl]cyclohexyl}-N^4-methyl-1H-imidazole-4,5-dicarboxamide] | ≥ 50000 nM |  |  |
| 94 nM | 52 nM | Cc1nc2c(C(=O)N[C@H]3CC[C@H](C(=O)Nc4ccc(F)cc4Cl)CC3)cnn2c2c1CCC2 [Example 113, N-{trans-4-[(2-chloro-4-fluorophenyl)carbamoyl]cyclohexyl}-5-methyl-7,8-dihydro-6H-cyclopenta[e]pyrazolo[1,5-a]pyrimidine-3-carboxamide] | ≥ 50000 nM |  |  |
| 22 nM | 28 nM | CNC(=O)c1nc[nH]c1C(=O)N[C@H]1CC[C@H](C(=O)Nc2cnccc2Cl)CC1 [Example 96, N^5-{trans-4-[(4-chloropyridin-3-yl)carbamoyl]cyclohexyl}-N^4-methyl-1H-imidazole-4,5-dicarboxamide] | 18000 nM |  |  |
| 30 nM | 27 nM | CNC(=O)c1nc[nH]c1C(=O)N[C@H]1CC[C@H](C(=O)Nc2ccc(F)cc2Br)CC1 [Example 7, N^5-{trans-4-[(2-bromo-4-fluorophenyl)carbamoyl]cyclohexyl}-N^4-methyl-1H-imidazole-4,5-dicarboxamide] | ≥ 50000 nM |  |  |
